Experimental data published in publication PMC11209715, “A novel selenium analog of HDACi-based twin drug induces apoptosis and cell cycle arrest via CDC25A to improve prostate cancer therapy” (Theranostics, 2024).

What was measured:
HT-29 = test: CCK-8 cell viability assay, HT-29; type: cell-based; conditions: Homo sapiens, Figure 2A
Protocol: (§1) Human cancer cell lines (PC3, DU145, A549, H1299, MDA-MB-231, HepG2, PANC-1, MIA PaCa-2, HT-29, HCT116, and HeLa) were obtained from the Cell Resource Center, Peking Union Medical College (National Infrastructure of Cell Line Resource, NSTI). These cell lines were cultured according to NSTI culture guidelines and cultured in RPMI 1640 medium (Biological Industries, Israel) supplemented with 10% heat-inactivated fetal bovine serum (FBS; BI; Israel), penicillin/streptomycin (P/S; 100 IU/ml; Gibco, 10378016) in an incubator at 37 °C and 5% CO2.
(§2) Cell cytotoxicity assays were performed in 96-well plates (NEST) to determine the growth kinetics of SeSA-DCA-treated cells using CCK-8 reagent (Shandong Sparkjade Biotechnology Co., Ltd., CT0001-B). Cells (5000 cells/well) were treated with DMSO or different drugs. Each treatment was performed in five replicates. To assess cell growth, 10 μL of CCK-8 reagent was introduced to every well and allowed to incubate for 4 h. Following that, the absorbance value for each well was measured at 450 nm. Every experiment was duplicated no less than thrice.

PC3 cells [1] = test: RNA-sequencing and GSEA of treated PC3 cells; type: cell-based, Human; conditions: 48 h
Protocol: PC3 cells were seeded at a density of 5 × 10^6 cells/flask in two 75 cm^2 flasks. Treatment with drugs for 48 h was performed in one flask, whereas the other was used as a control. Total RNA was isolated using TRIZOL, and the total RNA was extracted from the sample with RNA extraction kit (Accurate Biotechnology (Hunan) Co., Ltd. ChangSha, China). DNA was digested with DNase (GenScript, E00053). Magnetic beads with Oligo (dT) were used to enrich eukaryotic mRNA, and cDNA library construction and sequencing were performed on the Illumina HiSeq Xten platform. After quality inspection, raw data (raw reads) were processed using Trimmomatic. Reads containing ploy-N and low-quality reads were removed to obtain clean reads. The clean reads were then mapped to the reference genome using HISAT2. The FPKM value of each gene was calculated using cufflinks, and the read counts of each gene were obtained by htseq-count. DEGs were identified using DESeq. […] Hierarchical cluster analysis of DEGs was performed to explore the gene expression patterns. KEGG pathway enrichment analysis and PPI and IPA analyses of the DEGs were performed.
GSEA was conducted using GSEA software.

PC3 cells [2] = test: CCK-8 cell viability assay, PC3; type: cell-based; conditions: Homo sapiens, PC-3, Figure 2B and text
Protocol: as §1, §2

[3] = Drug toxicity test: blood biochemistry in nude mice; type: in vivo; parameters: TBIL / BUN: unit not given here; conditions: serum of nude mice; for ALT: dose (DCA 100, SAHA 20, SeSAHA 20, Docetaxel 10, SeSA-DCA 20 mg/kg); for ALT / ALP / AST: in U/L (unit assumed); for ALB / GLOB / TP: in g/L (unit assumed)
Protocol: Blood samples from each mouse were kept at room temperature for 3 h and centrifuged at 8000 rpm for 15 min to produce serum. The samples were then placed on the blood routine detector for biochemical analysis.

HDAC = test: Inhibitory activity of SeSAHA compared with SAHA (data not shown); conditions: preliminary results
[4] = versus DMSO, adjusted p-value < 0.05, |log2foldchange| > 1

Which IC50 (HT-29) does the source give for O=C(CCCCCC[Se][Se]CCCCCCC(=O)Nc1cccc(COC(=O)C(Cl)Cl)c1)Nc1cccc(COC(=O)C(Cl)Cl)c1 here?
Its IC50 is 8.71 µM.

For O=C(O)C(Cl)Cl [DCA, Dichloroacetate], which “changes in gene expression compared with DMSO” value (PC3 cells [1]) is on record?
Its value is “minimal changes”.

What about the IC50 (PC3 cells [2]) of the same compound?
The IC50 was greater than 18000 µM.

And the A/G [3]?
Its A/G is 0.36 ± 0.02.

And the BUN [3]?
The BUN was 10.5 ± 0.88.

And the TBIL [3]?
Its TBIL is 0.49 ± 0.06.

And the ALT [3]?
The ALT was 37.5 ± 4.5.

What about the ALP [3] of the same compound?
Its ALP is 36.2 ± 3.6.

And the AST [3]?
The AST was 223.4 ± 35.

And the ALB [3]?
Its ALB is 13.45 ± 0.18.

What about the GLOB [3] of the same compound?
The GLOB was 37.1 ± 0.22.

And the TP [3]?
Its TP is 51.5 ± 0.45.

With CC(=O)O[C@@]12CO[C@@H]1C[C@H](O)[C@@]1(C)C(=O)[C@H](O)C3=C(C)[C@@H](OC(=O)[C@H](O)[C@@H](NC(=O)OC(C)(C)C)c4ccccc4)C[C@@](O)([C@@H](OC(=O)c4ccccc4)[C@H]21)C3(C)C [Docetaxel, docetaxel] as the compound, how does the A/G [3] read?
The A/G was 0.38 ± 0.04.

And the BUN [3]?
Its BUN is 9.8 ± 0.8.

What about the TBIL [3] of the same compound?
The TBIL was 0.7 ± 0.07.

And the ALT [3]?
The ALT was 46.4 ± 5.7.

What about the ALP [3] of the same compound?
The ALP was 34.2 ± 8.2.

What about the AST [3] of the same compound?
Its AST is 251.8 ± 48.3.

And the ALB [3]?
Its ALB is 14.6 ± 0.6.

What about the GLOB [3] of the same compound?
Its GLOB is 38.3 ± 3.1.

And the TP [3]?
Its TP is 52.8 ± 4.1.

Which results are given for O=C(CCCCCCC(=O)Nc1ccccc1)NO [SAHA, suberoylanilide hydroxamic acid]?
downregulated transcripts/genes (PC3 cells [1]; [4]): 1573; upregulated transcripts/genes (PC3 cells [1]; [4]): 2,024; BUN [3]: 7.9 ± 1.5; TBIL [3]: 0.8 ± 0.17; ALT [3]: 53.5 ± 5.5; ALP [3]: 34.3 ± 3.3; AST [3]: 285.3 ± 40.6; ALB [3]: 15.8 ± 0.6; GLOB [3]: 35.9 ± 3.6; TP [3]: 51.7 ± 2.5

For O=C(CCCCCC[Se][Se]CCCCCCC(=O)Nc1cccc(CO)c1)Nc1cccc(CO)c1 [SeSAHA], which “inhibitory effect relative to SAHA” value (HDAC) is on record?
Its value is “more than 10 fold”.

And the IC50 (PC3 cells [2])?
Its IC50 is greater than 1.8 µM.

What about the A/G [3] of the same compound?
Its A/G is 0.4 ± 0.07.

And the BUN [3]?
The BUN was 6.7 ± 0.7.

What about the TBIL [3] of the same compound?
The TBIL was 0.6 ± 0.07.

And the ALT [3]?
The ALT was 49.3 ± 6.7.

What about the ALP [3] of the same compound?
Its ALP is 36.5 ± 4.3.

What about the AST [3] of the same compound?
Its AST is 235.5 ± 40.3.

And the ALB [3]?
Its ALB is 15.4 ± 2.1.

And the GLOB [3]?
The GLOB was 38.4 ± 1.1.

What about the TP [3] of the same compound?
The TP was 53.7 ± 0.3.
